Data as given in ChEMBL document CHEMBL1201862, “PubChem BioAssay data set” (2004).
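Following 48 hours of exposure in 96-well plates, responses at five concentrations were used to interpolate endpoints linearly. GI50 marks 50% less growth.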 Calls of active or inactive are those of the source. Rule as the data show it: active = GI50 up to about 1.1 µM and inactive = higher.

Legend:
Test in all cases: DTP human tumour cell line panel, 48 h
SW-620 = tested on: SW-620
HL-60 = tested on: HL-60
TK-10 = tested on: TK-10
Hs-578T = tested on: Hs-578T
UACC-62 = tested on: UACC-62
HOP-62 = tested on: HOP-62
UO-31 = tested on: UO-31
NCI-H23 = tested on: NCI-H23
Malme-3M = tested on: Malme-3M
HCC 2998 = tested on: HCC 2998
SK-MEL-5 = tested on: SK-MEL-5
ACHN = tested on: ACHN
RXF 393 = tested on: RXF 393
RPMI-8226 = tested on: RPMI-8226
SF-539 = tested on: SF-539
M14 = tested on: M14
HCT-15 = tested on: HCT-15
NCI-H226 = tested on: NCI-H226
A498 = tested on: A498
SNB-75 = tested on: SNB-75

Row | Compound | GI50 (SW-620) | GI50 (HL-60) | GI50 (TK-10) | GI50 (Hs-578T) | GI50 (UACC-62) | GI50 (HOP-62) | GI50 (UO-31) | GI50 (NCI-H23) | GI50 (Malme-3M) | GI50 (HCC 2998) | GI50 (SK-MEL-5) | GI50 (ACHN) | GI50 (RXF 393) | GI50 (RPMI-8226) | GI50 (SF-539) | GI50 (M14) | GI50 (HCT-15) | GI50 (NCI-H226) | GI50 (A498) | GI50 (SNB-75)
1 | COC(=O)C(Cc1c[nH]c2ccccc12)NC1=Nc2ccncc2S(=O)(=O)N1c1ccccc1 (centres undefined) | 28.1 µM (inactive) | 0.199 µM (active) | > 100 µM (inactive) | 56.1 µM (inactive) | 3.15 µM (inactive) | 67.3 µM (inactive) | 32.6 µM (inactive) | 41.5 µM (inactive) | 19 µM (inactive) | 27.5 µM (inactive) | 16 µM (inactive) | 29.9 µM (inactive) | 19.9 µM (inactive) | 13.1 µM (inactive) | 17.1 µM (inactive) | 35.6 µM (inactive) | 77.6 µM | 14.1 µM (inactive) | > 100 µM (inactive) | 20.7 µM (inactive)
2 | O=NN1CCCS1(=O)=O | > 100 µM (inactive) | > 100 µM (inactive) | > 100 µM (inactive) | > 100 µM (inactive) | > 100 µM (inactive) | > 100 µM (inactive) | 95.1 µM (inactive) | > 100 µM (inactive) | > 100 µM (inactive) | > 100 µM (inactive) | > 100 µM (inactive) | > 100 µM (inactive) | > 100 µM (inactive) | > 100 µM (inactive) | > 100 µM (inactive) | > 100 µM (inactive) | > 100 µM | > 100 µM (inactive) | > 100 µM (inactive) | 12.6 µM (inactive)
3 | CO/N=C(\C(=O)O/C(=N/C1CCCCC1)NC1CCCCC1)c1csc(NC(c2ccccc2)(c2ccccc2)c2ccccc2)n1 | > 10 µM (inactive) | > 10 µM (inactive) | > 10 µM (inactive) | > 10 µM (inactive) |  | > 10 µM (inactive) | > 10 µM (inactive) | > 10 µM (inactive) | > 10 µM (inactive) | > 10 µM (inactive) | > 10 µM (inactive) | > 10 µM (inactive) | 5.05 µM (inactive) | > 10 µM (inactive) | > 10 µM (inactive) | > 10 µM (inactive) | > 10 µM | > 10 µM (inactive) | > 10 µM (inactive) | > 10 µM (inactive)
4 | COC(=O)C1=C(OC(=O)/C(=C/c2ccccc2)c2ccc(Cl)cc2Cl)C(C(=O)OC)[C@@]2(O)[C@@H](C(=O)OC)[C@H](C)C[C@@H]1[C@@H]2C(=O)OC (some centres undefined) | > 100 µM (inactive) | > 100 µM (inactive) | > 100 µM (inactive) | > 100 µM (inactive) | > 100 µM (inactive) | > 100 µM (inactive) | > 100 µM (inactive) | > 100 µM (inactive) | > 100 µM (inactive) | > 100 µM (inactive) | 82.8 µM (inactive) | 42 µM (inactive) | > 100 µM (inactive) | > 100 µM (inactive) | > 100 µM (inactive) | > 100 µM (inactive) | > 100 µM | > 100 µM (inactive) | > 100 µM (inactive) | 75.9 µM (inactive)
5 | CCOC(=O)C1C(=O)CC(O)(c2ccccc2)C(C(=O)OCC)C1c1ccc(OC)cc1 (centres undefined) | 12.2 µM (inactive) | 10.5 µM (inactive) | 65.5 µM (inactive) | 0.695 µM (active) | 21.9 µM (inactive) | 25.5 µM (inactive) | 61.2 µM (inactive) | 31 µM (inactive) | 26.2 µM (inactive) | 37.9 µM (inactive) | 19.1 µM (inactive) | 43.4 µM (inactive) | 13.6 µM (inactive) | 13.8 µM (inactive) | 15.6 µM (inactive) | 10.4 µM (inactive) | 19.4 µM | 32.4 µM (inactive) | 42.2 µM (inactive) | 0.479 µM (active)
6 | COC1=CC(=O)c2c(O)ccc(O)c2C1=O | 3.85 µM (inactive) | 3.77 µM (inactive) | 14.7 µM (inactive) | 6.4 µM (inactive) | 1.92 µM (inactive) | 2.19 µM (inactive) | 17.3 µM (inactive) | 2.64 µM (inactive) | 0.0607 µM (active) | 4.49 µM (inactive) | 0.851 µM (active) | 16.5 µM (inactive) | 16.6 µM (inactive) | 9.2 µM (inactive) | 5.19 µM (inactive) | 0.689 µM (active) | 2.4 µM | 21.6 µM (inactive) | 17.8 µM (inactive) | 1.91 µM (inactive)
7 | Cc1ccc(S(=O)(=O)N/N=C/C(=C/c2ccc(Cl)cc2)CC(/C=N/NS(=O)(=O)c2ccc(C)cc2)=C\c2ccc(Cl)cc2)cc1 | 4.47 µM (inactive) | 3.59 µM (inactive) | 17.9 µM (inactive) | 3.68 µM (inactive) | 5.08 µM (inactive) | 19.5 µM (inactive) | 5.62 µM (inactive) | 6.93 µM (inactive) | 8.2 µM (inactive) | 3.21 µM (inactive) | 4.03 µM (inactive) | 6.04 µM (inactive) | 3.56 µM (inactive) | 2.64 µM (inactive) | 12.1 µM (inactive) | 10.8 µM (inactive) | 3.58 µM | 15 µM (inactive) | 4.94 µM (inactive) | 3.96 µM (inactive)
